Measurements taken from patent publication US10822311B2, “Pyrimidines and variants thereof, and uses therefor” (Afferent Pharmaceuticals Inc., priority 2016, dated 2020).

Tests used:
[1] = molecular target: T1, human P2X3 receptor (homomeric P2X3 channels) (Homo sapiens, UniProt P56373); assay: FlexStation calcium fluorescence assay, homomeric P2X3 channels in HEK293 cells; assay type: cell-based; conditions: for IC50: HEK293 cells, hP2X3, agonist 1 μM α,β-meATP, read-out: Average pIC50 P2X3 (converted); for Selectivity P2X3/P2X2/3: Ratio=10^(P2X3pIC50−P2X2/3pIC50); for Selectivity, R = OMe / P2X3 mean pIC50, R = OMe: Table 3B; for Selectivity, R = OMe: P2X3 vs P2X2/3 potency ratio; for P2X3 mean pIC50, R = OMe: Table 2
T1 construct: expressed in transfected cells; host or cells: HEK293 human embryonic kidney cells (HEK-hP2X3)
T1 sequence (P56373 1-397): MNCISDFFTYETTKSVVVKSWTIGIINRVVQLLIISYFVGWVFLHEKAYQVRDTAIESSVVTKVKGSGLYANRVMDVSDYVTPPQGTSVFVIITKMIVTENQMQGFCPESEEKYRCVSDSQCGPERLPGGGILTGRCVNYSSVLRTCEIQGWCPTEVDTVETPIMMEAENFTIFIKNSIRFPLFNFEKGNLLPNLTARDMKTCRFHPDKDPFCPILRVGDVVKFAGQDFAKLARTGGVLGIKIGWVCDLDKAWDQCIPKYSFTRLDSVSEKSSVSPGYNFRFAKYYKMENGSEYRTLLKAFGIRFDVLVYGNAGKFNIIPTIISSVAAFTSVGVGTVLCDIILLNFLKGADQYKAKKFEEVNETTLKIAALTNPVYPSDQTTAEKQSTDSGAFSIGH
Method: (§1) 1321N1 human astrocytoma and HEK293 human embryonic kidney cells were stably transfected with human P2X2 and P2X3 receptor subunits to form heteromeric P2X2/3 channels and passaged in flasks. Additionally, HEK293 cells were stably transfected with human P2X3 receptor subunits to form homomeric P2X3 channels.
(§2) Approximately 24 hours before the FlexStation calcium fluorescence experiment, cells were released from their flasks, centrifuged and re-suspended in nutrient medium. The cells were aliquoted into black-wall, clear-bottom 96 well plates at a density of 25,000 cells per well and incubated overnight in a humidified, CO2-enriched (5%) atmosphere at 37° C.
(§3) On the day of the experiment, cells were washed with assay buffer (calcium- and magnesium-free Hank's balanced salt solution, 20 mM HEPES, 2 mM CaCl2; AB) and loaded with 4 μM Fluo-4 (P2X2/3) or Calcium 6 (Molecular Devices, according to manufacturer's instructions; P2X3) calcium-sensitive fluorescent dye in 100 μL AB.
(§4) After 1 hour of dye loading at 37° C., 1321N1-hP2X2/3 cells were washed two times with AB and test compound or vehicle added to each well in a total volume of 150 μL AB. HEK-hP2X3 cells were not washed because the Calcium 6 dye kit includes an extracellular dye that quenches unabsorbed Calcium 6 dye; test compound or vehicle were added directly to the assay plates to achieve the appropriate concentration of test compound in a total volume of 150 μL AB.
(§5) After 20 minutes incubation at room temperature and protected from light, the assay plates were loaded into the FlexStation microplate reader and baseline fluorescence measured with an excitation wavelength of 485 nm and emission wavelength readings centered at 525 nm (515 nm cut off).
(§6) The agonist was dispensed by the FlexStation during fluorescence measurement to construct agonist activation and antagonist inhibition curves. The final agonist concentration for inhibition was 1 μM α,β-meATP for P2X3 and 3 μM ATP for P2X2/3. Peak fluorescence was measured and curves generated using a four parameter nonlinear regression equation.

[2] = molecular target: T2, human P2X2/3 (heteromeric P2X2/3 channels) (Homo sapiens, UniProt P56373+Q9UBL9); assay: FlexStation calcium fluorescence assay, heteromeric P2X2/3 channels in 1321N1 cells; assay type: cell-based; conditions: for IC50: 1321N1 cells, hP2X2/3, agonist 3 μM ATP, read-out: Average pIC50 P2X2/3 (converted); for P2X2/3 mean pIC50, R = OMe: Table 3B, Table 2
T2 construct: expressed in transfected cells; host or cells: 1321N1 human astrocytoma cells (1321N1-hP2X2/3)
T2 sequence (P56373 1-397): T1 sequence (P56373 1-397)
T2 sequence (Q9UBL9 1-471): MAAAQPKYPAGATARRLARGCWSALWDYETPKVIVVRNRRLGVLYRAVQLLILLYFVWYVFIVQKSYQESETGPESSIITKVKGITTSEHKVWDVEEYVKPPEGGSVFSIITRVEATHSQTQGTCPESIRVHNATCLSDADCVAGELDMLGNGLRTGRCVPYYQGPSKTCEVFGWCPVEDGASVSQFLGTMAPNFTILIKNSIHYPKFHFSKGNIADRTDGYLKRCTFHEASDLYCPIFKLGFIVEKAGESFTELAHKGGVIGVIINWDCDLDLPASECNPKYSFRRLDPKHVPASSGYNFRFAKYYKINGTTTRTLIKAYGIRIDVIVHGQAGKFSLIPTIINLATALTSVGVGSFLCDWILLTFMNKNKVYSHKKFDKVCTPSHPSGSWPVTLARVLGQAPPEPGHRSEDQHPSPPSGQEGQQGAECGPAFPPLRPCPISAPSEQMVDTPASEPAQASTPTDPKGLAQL
Method: as §1, §2, §3, §4, §5, §6

[3] = highest concentration tested is 10 μM
[4] = hP2X2/3, 1321N1 (astrocytoma) cells

Structure (SMILES) | IC50 [1] | Selectivity P2X3/P2X2/3 [1] | IC50 [2, 3] | Selectivity, R = OMe [1] | P2X3 mean pIC50, R = OMe ([1]; hP2X3, HEK293 cells) | P2X2/3 mean pIC50, R = OMe [2, 4] | P2X3 mean pIC50, X = S ([1]; Table 3A, sulfur-linked, hP2X3, HEK293 cells) | P2X2/3 mean pIC50, X = S ([2]; Table 3A, sulfur-linked, hP2X2/3, 1321N1 (astrocytoma) cells, highest concentration tested is 10 μM)
COc1cc(Oc2cnc(NC3CCC3)nc2N)c(C(C)C)cc1OC [Compound 27] | 200 nM | 2.5 | 501 nM |  |  |  |  | 
COc1cc(C(C)C)c(Sc2cnc(N)nc2N)cc1C#N [Compound 10] | > 10000 nM |  | > 10000 nM |  |  |  |  | 
COc1cc(Oc2cnc(N)nc2NCc2ccccc2)c(C(C)C)cc1OC [Compound 46] | 631 nM | 4.8 | 3160 nM |  |  |  |  | 
COc1cc(Oc2cnc(NC3CC3)nc2N)c(C(C)C)cc1OC [Compound 26] | 631 nM | 5.4 | 3160 nM |  |  |  |  | 
COc1nc(C(C)C)c(Oc2cnc(N)nc2N)cc1I [Compound 15] | 63.1 nM | 6.5 | 398 nM |  |  |  |  | 
C#Cc1cc(Sc2cnc(N)nc2N)c(C(C)C)cc1OC [Compound 5] | 39.8 nM |  | 3980 nM |  |  |  |  | 
COc1cc(Oc2cnc(N)nc2Nc2ccccc2)c(C(C)C)cc1OC [Compound 42] | 1000 nM | >10 | > 10000 nM |  |  |  |  | 
CC#Cc1cc(Sc2cnc(N)nc2N)c(C(C)C)cc1OC [Compound 6] | 794 nM |  | > 10000 nM |  |  |  |  | 
COc1cc(C(C)C)c(Sc2cnc(N)nc2N)cc1S(N)(=O)=O [Compound 3] | 158 nM |  | > 10000 nM |  |  |  |  | 
COc1cc(Oc2cnc(NCCO)nc2N)c(C(C)C)cc1OC [Compound 22] | 200 nM | 7.9 | 1580 nM | 7.9 | 6.7 | 5.8 |  | 
COc1cc(Oc2cnc(N)nc2NC2CCN(C)CC2)c(C(C)C)cc1OC [Compound 39] | 316 nM | 20 | 6310 nM |  |  |  |  | 
COc1nc(C(C)C)c(Oc2cnc(N)nc2N)cc1S(N)(=O)=O [Compound 20] | 20 nM |  | 398 nM |  |  |  |  | 
COc1cc(C(C)C)c(Sc2cnc(N)nc2N)cc1S(C)(=O)=O [Compound 2] | 501 nM |  | > 10000 nM |  |  |  | 6.3 | <5
COCCNc1nc(N)ncc1Oc1cc(OC)c(OC)cc1C(C)C [Compound 36] | 1000 nM | >10 | > 10000 nM |  |  |  |  | 
COc1cc(Oc2cnc(NC(CO)CO)nc2N)c(C(C)C)cc1OC [Compound 30] | 126 nM | 4.9 | 631 nM | 5.0 | 6.9 | 6.2 |  | 
COc1cc(Oc2cnc(N)nc2Nc2cnccn2)c(C(C)C)cc1OC [Compound 44] | 1000 nM | >10 | > 10000 nM |  |  |  |  | 
COc1cc(Oc2cnc(N)nc2Nc2cccnn2)c(C(C)C)cc1OC [Compound 45] | 3160 nM | 3.5 | > 10000 nM |  |  |  |  | 
COc1cc(C(C)C)c(Sc2cnc(N)nc2N)cc1C [Compound 7] | 316 nM |  | > 10000 nM |  |  |  |  | 

Structure (SMILES) | IC50 [1] | Selectivity P2X3/P2X2/3 [1] | IC50 [2, 3] | Selectivity, R = OMe [1] | P2X3 mean pIC50, R = OMe ([1]; hP2X3, HEK293 cells) | P2X2/3 mean pIC50, R = OMe [2, 4] | P2X3 mean pIC50, X = S ([1]; Table 3A, sulfur-linked, hP2X3, HEK293 cells) | P2X2/3 mean pIC50, X = S ([2]; Table 3A, sulfur-linked, hP2X2/3, 1321N1 (astrocytoma) cells, highest concentration tested is 10 μM)
COc1cc(Oc2cnc(N)nc2NC(C)C)c(C(C)C)cc1OC [Compound 35] | 3980 nM | >2.5 | > 10000 nM |  |  |  |  | 
COc1nc(C(C)C)c(Oc2cnc(N)nc2N)cc1S(C)(=O)=O [Compound 16] | 63.1 nM |  | > 10000 nM |  |  |  |  | 
CNc1nc(N)ncc1Oc1cc(OC)c(OC)cc1C(C)C [Compound 34] | 1580 nM | >6.4 | > 10000 nM |  |  |  |  | 
COc1cc(C(C)C)c(Sc2cnc(N)nc2N)cc1Br [Compound 8] | 200 nM |  | > 10000 nM |  |  |  |  | 
COc1cc(Oc2cnc(NC(CCO)CCO)nc2N)c(C(C)C)cc1OC [Compound 21] | 79.4 nM | 5.0 | 398 nM |  |  |  |  | 
COc1nc(C(C)C)c(Oc2cnc(N)nc2N)cc1C#N [Compound 17] | 1000 nM |  | > 10000 nM |  |  |  |  | 
COc1cc(C(C)C)c(Sc2cnc(N)nc2N)cc1-c1nnn[nH]1 [Compound 11] | 158 nM |  | > 10000 nM |  |  |  |  | 
COc1cc(Oc2cnc(N)nc2Nc2ccccn2)c(C(C)C)cc1OC [Compound 43] | 1580 nM | >5.6 | > 10000 nM |  |  |  |  | 
COc1cc(Nc2cnc(N)nc2N)c(C(C)C)cc1OC [Compound 47] | 49 nM |  | 1380 nM |  |  |  |  | 
COc1cc(Oc2cnc(N)nc2NCC(C)C)c(C(C)C)cc1OC [Compound 33] | 631 nM | >15 | > 10000 nM |  |  |  |  | 
COc1cc(Oc2cnc(NC(C)(C)C)nc2N)c(C(C)C)cc1OC [Compound 23] | 1000 nM | >10.5 | > 10000 nM |  |  |  |  | 
COc1cc(Oc2cnc(N)nc2NC2CC2)c(C(C)C)cc1OC [Compound 32] | 794 nM | 1.6 | 1260 nM |  |  |  |  | 
COc1cc(Oc2cnc(N)nc2NCCS(C)(=O)=O)c(C(C)C)cc1OC [Compound 41] | 398 nM | >27 | > 10000 nM |  |  |  |  | 
COc1cc(Oc2cnc(N)nc2N)c(C(C)C)nc1OC [Compound 13] | 39.8 nM |  | 200 nM |  |  |  |  | 
COc1cc(Oc2cnc(NCC(C)C)nc2N)c(C(C)C)cc1OC [Compound 25] | 631 nM | 4.3 | 2510 nM |  |  |  |  | 
C#Cc1cc(Oc2cnc(N)nc2N)c(C(C)C)nc1OC [Compound 19] | 6.31 nM |  | 200 nM |  |  |  |  | 
COc1cc(Oc2cnc(N)nc2NCCN(C)C)c(C(C)C)cc1OC [Compound 38] | 158 nM | 17 | 2510 nM |  |  |  |  | 
